Measurements from patent EP2532368A1, “"Composition for oral delivery of biologically-active substances"” (Peluso, Gianfranco, priority 2011, dated 2012).

Test system: DSS-induced colitis
Test: DSS-induced colitis in mice
Assay type: in vivo, C57BL/6 mice
Conditions: 3% DSS in water, daily gavage for 7 days

`Nc1ccc(O)c(C(=O)O)c1` [5-ASA, 5-Aminosalicylic acid] was tested, and the weight loss was “does not reduce the severity of weight loss” and the “Intestinal myeloperoxidase (MPO) activity” value (colon) was “has no effect on the basal MPO levels”.
